Measurements reported in patent US6120765A, “Urokinase plasminogen activator fragments” (Shiseido Co. Ltd., priority 1993, dated 2000).
Where no end group is shown, it is not given here.

System: Primary human keratinocytes
Test: Mitogenesis assay (3H-thymidine incorporation, DNA synthesis) in keratinocytes
Type: cell-based
Conditions: for 3H-thymidine uptake (mitogenesis) of Lys23-substituted 9-mers versus controls: keratinocytes, negative control no peptide, positive control K-GFD
Experimental: FIG. 1 is a bar graph which represents the effect of various uPA peptides on DNA synthesis in keratinocytes. Various concentrations of GFD peptides were tested in order to compare the mitogenic activity. After 24 h incubation with a peptide and 3H-thymidine, incorporated radioactivity was measured as described herein. Five concentrations were used for each peptide. For a given peptide the uppermost bar of the five represents 0.1 μM, the next lower bar 0.33 μM, the next lower bar 1 μM, the next lower bar 3.3 μM, and the lowest bar, 10 μM.
Mitogenesis Assay The effect of a peptide on mitogenesis was determined as a function of DNA synthesis as follows. Peptides (in phosphate buffered saline (PBS)) were added to the monolayers (grown as described herein) to a final concentration of either 0.1 μM, 0.33 μM, 1.0 μM, 3.3 μM, or 10 μM. 5 μL of ^3 H-thymidine (10 μCi/ml; Amersham, Arlington Heights, Ill.) in 150 μL KGM was added to the cultures concurrent with the peptides, and cells were harvested and lysed after 24 hours at 37° C. in distilled H2 O using a Tomtec cell harvester, and fixed with 70% ethanol. The lysed cells were then transferred to a nylon filter (Amersham, Arlington Heights, Ill.), Beta plate scintillation fluid was added (LKB), and radioactivity was measured using a Wallac 1205 beta plate counter. Control samples, incubated in the presence of phosphate-buffered saline (PBS) and ^3 H-thymidine gave control levels of radioactivity of approximately 400 cpm.
Cell Culture Primary human keratinocytes (Clonetics, Calif.) were cultured in 96-well plates (Corning, N.Y.) in serum-free medium (KGM medium, Clonetics) to 70-80% confluency on a monolayer culture at 37° C. in 5% C02.

Sequence	3H-thymidine uptake (mitogenesis) of Lys23-substituted 9-mers versus controls	concentration giving maximum level of mitogenic activity (24 h, tested 0.1-10 μM) [µM]	further results
SNAYFSDIH [A-GFD]	little different from negative control cells		
SNEYFSDIH [E-GFD]	inhibited mitogenesis		
SNKYFSNIH [9-mer, K-GFD printed in b183 with Asp instead of Asn]	increased uptake as compared with untreated cells	1	lowest concentration effective in stimulating mitogenesis (24 h, tested 0.1-10 μM): 0.33 µM
SNRYFSDIH [R-GFD]	greatly increased		
TCVSNKYFSNIH [12-mer]			effect on keratinocyte stimulation (at other concentrations than 1 μM (0.1, 0.33, 3.3, 10 μM)): little, if any, effect; mitogenic activity (3H-thymidine incorporation) (only at 1 μM, 24 h): demonstrated mitogenic activity
TCVSNKYFSNIHWCN [15-mer]		3.3	
